Measured values taken from ChEMBL document CHEMBL4219147, “Design, synthesis, and structure-activity relationships of novel 4,7,12,12a-tetrahydro-5H-thieno[3',2':3,4]pyrido[1,2-b]isoquinoline and 5,8,12,12a-tetrahydro-6H-thieno[2',3':4,5]pyrido[2,1-a]isoquinoline derivatives as cellular activators of adenosine 5'-monophosphate-activated protein kinase …” (Bioorg Med Chem, 2018).
Calls of active or inactive are those of the source. No cut-off for these calls is given here.

How the values were obtained:
L6 [1] = test: Activation of AMPK in differentiated Sprague-Dawley rat L6 myotube cells assessed as glucose consumption at 20 uM after 12 hrs by colorimetric assay (reference value: 100 +/- 1.8%); type: cell-based
[2] = Cytotoxicity against Sprague-Dawley rat L6 cells assessed as cell viability at 10 uM after 12 hrs by SRB assay (reference value: 100 +/- 1.8%); type: cell-based; details: read-out: Activity
[3] = Cytotoxicity against Sprague-Dawley rat L6 cells assessed as cell viability at 5 uM after 12 hrs by SRB assay (reference value: 100 +/- 1.8%); type: cell-based; details: read-out: Activity
L6 [4] = test: Activation of AMPK in differentiated Sprague-Dawley rat L6 myotube cells assessed as glucose consumption at 5 uM after 12 hrs by colorimetric assay (reference value: 100 +/- 1.8%); type: cell-based
[5] = Cytotoxicity against Sprague-Dawley rat L6 cells assessed as cell viability at 20 uM after 12 hrs by SRB assay (reference value: 100 +/- 1.8%); type: cell-based; details: read-out: Activity
L6 [6] = test: Activation of AMPK in differentiated Sprague-Dawley rat L6 myotube cells assessed as glucose consumption at 10 uM after 12 hrs by colorimetric assay (reference value: 100 +/- 1.8%); type: cell-based
L6 [7] = test: Activation of AMPK in differentiated Sprague-Dawley rat L6 myotube cells assessed as increase in glucose consumption at 5 to 20 uM after 12 hrs by colorimetric assay relative to control; type: cell-based
L6 [8] = test: Activation of AMPK in differentiated Sprague-Dawley rat L6 myotube cells assessed as increase in glucose consumption at 5 to 20 uM after 12 hrs by colorimetric assay relative to berberine; type: cell-based
Rattus norvegicus [9] = species: Rattus norvegicus; test: Activation of AMPK in Sprague-Dawley rat primary hepatocytes assessed as inhibition of gluconeogenesis by measuring glucose production at 5 uM after 6 hrs by colorimetric assay (reference value: 100 +/- 3.5%); parameters: scale not given: the % may be the effect or the level left
L6 [10] = test: Inhibition of mitochondrial respiratory complex 1 in differentiated Sprague-Dawley rat L6 myotube cells assessed as mitochondrial membrane potential at 10 uM after 40 to 60 mins by JC-1 staining based fluorescence assay (reference value: 100 +/- 1.6%); type: cell-based; parameters: scale not given: the % may be the effect or the level left
L6 [11] = test: Inhibition of mitochondrial respiratory complex 1 in differentiated Sprague-Dawley rat L6 myotube cells assessed as mitochondrial membrane potential at 20 uM after 40 to 60 mins by JC-1 staining based fluorescence assay (reference value: 100 +/- 1.6%); type: cell-based; parameters: scale not given: the % may be the effect or the level left
Rattus norvegicus [12] = species: Rattus norvegicus; test: Activation of AMPK in Sprague-Dawley rat primary hepatocytes assessed as inhibition of gluconeogenesis by measuring glucose production at 10 uM after 6 hrs by colorimetric assay (reference value: 100 +/- 3.5%); parameters: scale not given: the % may be the effect or the level left
L6 [13] = test: Activation of AMPK in Sprague-Dawley rat L6 myotube cells assessed as increase in acetyl-CoA carboxylase phosphorylation at Ser79 residues at 5 to 20 uM after 1 hr by Western blot analysis; type: cell-based
Rattus norvegicus [14] = species: Rattus norvegicus; test: Activation of AMPK in Sprague-Dawley rat primary hepatocytes assessed as inhibition of gluconeogenesis by measuring glucose production at 20 uM after 6 hrs by colorimetric assay (reference value: 100 +/- 3.5%); parameters: scale not given: the % may be the effect or the level left
L6 [15] = test: Upregulation of AMPKalpha phosphorylation at Thr172 residues in Sprague-Dawley rat L6 myotube cells at 5 to 20 uM after 1 hr by Western blot analysis; type: cell-based
L6 [16] = test: Inhibition of mitochondrial respiratory complex 1 in differentiated Sprague-Dawley rat L6 myotube cells assessed as mitochondrial membrane potential at 5 uM after 40 to 60 mins by JC-1 staining based fluorescence assay (reference value: 100 +/- 1.6%); type: cell-based; parameters: scale not given: the % may be the effect or the level left
Rattus norvegicus [17] = species: Rattus norvegicus; test: Activation of AMPK in Sprague-Dawley rat primary hepatocytes assessed as inhibition of gluconeogenesis by measuring glucose production after 6 hrs by colorimetric assay

Row | Compound | Activity (L6 [1]) | viability at 12 h, 10 µM [2] | viability at 12 h, 5 µM [3] | Activity (L6 [4]) | viability at 12 h, 20 µM [5] | Activity (L6 [6]) | fold change (FC) (L6 [7]) | fold change (FC) (L6 [8]) | Activity (Rattus norvegicus [9]) | Activity (L6 [10]) | Activity (L6 [11]) | Activity (Rattus norvegicus [12]) | Activity (L6 [13]) | Activity (Rattus norvegicus [14]) | Activity (L6 [15]) | Activity (L6 [16]) | inhibition (Rattus norvegicus [17])
1 | COc1ccc(OC)c2c1CC1c3cc(Cc4ccc5c(c4)CCO5)sc3CCN1C2 (stereo not given) | 212% | 103% | 101% | 200% | 103% | 212% | 2.1 to 2.7 |  |  |  |  |  |  |  |  |  | 
2 | COc1ccc(OC)c2c1CC1c3cc(C(C)c4ccccc4)sc3CCN1C2 (stereo not given) | 246% | 102% | 101% | 244% | 101% | 264% | 2.3 to 2.9 | 2.3 | 43.4% | 76.6% | 66% | 39.5% | Active | 36% | Active | 86.6% | Dose-dependent effect
3 | COc1ccc(OC)c2c1CC1c3cc(Cc4ccc(C)cc4)sc3CCN1C2 (stereo not given) | 238% | 106% | 100% | 222% | 107% | 230% | 2.3 to 2.9 | 2.3 | 73.3% | 57.7% | 49% | 65% | Active | 55.7% | Active | 67.7% | Dose-dependent effect
4 | COc1ccc(OC)c2c1CC1c3cc(Cc4ccc(N5CCCCC5)cc4)sc3CCN1C2 (stereo not given) | 270% | 101% | 103% | 214% | 102% | 252% | 2.5 |  | 51.6% | 71.7% | 58.5% | 46.7% | Active | 43% | Active | 82.8% | Dose-dependent effect
5 | COc1ccc(OC)c2c1CC1c3cc(Cc4ccc(N5CCOCC5)cc4)sc3CCN1C2 (stereo not given) | 157% | 99.2% | 97.7% | 97.1% | 98.9% | 137% | 1.4 |  |  |  |  |  |  |  |  |  | 
6 | COc1ccc(OC)c2c1CC1c3cc(Cc4ccc(NC(C)=O)cc4)sc3CCN1C2 (stereo not given) | 142% | 97.2% | 96.2% | 121% | 94.9% | 130% | 1.3 |  |  |  |  |  |  |  |  |  | 
7 | COc1ccc(OC)c2c1CC1c3cc(Cc4ccc(N(C)C)cc4)sc3CCN1C2 (stereo not given) | 230% | 108% | 110% | 200% | 107% | 201% | 2 |  |  |  |  |  |  |  |  |  | 
8 | COc1ccc(OC)c2c1CC1c3cc(Cc4ccc(N5CCN(C)CC5)cc4)sc3CCN1C2 (stereo not given) | 181% | 104% | 106% | 168% | 107% | 169% | 1.7 |  |  |  |  |  |  |  |  |  | 
9 | N#CC(C#N)=NNc1cccc(Cl)c1 |  |  |  |  |  |  |  |  |  | 42.9% |  |  |  |  |  |  | 
10 | COc1ccc(OC)c2c1CC1c3cc(Cc4ccccn4)sc3CCN1C2 (stereo not given) | 172% | 103% | 104% | 140% | 103% | 148% | 1.3 to 1.5 |  |  |  |  |  |  |  |  |  | 
11 | COc1ccc(OC)c2c1CC1c3cc(Cc4cc(OC)c(OC)c(OC)c4)sc3CCN1C2 (stereo not given) | 184% | 104% | 95.3% | 174% | 104% | 188% | 1.9 |  |  |  |  |  |  |  |  |  | 
12 | COc1ccc(OC)c2c1CC1c3cc(Cc4ccc(C(F)(F)F)cc4)sc3CCN1C2 (stereo not given) | 229% | 101% | 102% | 156% | 100% | 189% | 1.9 |  |  |  |  |  |  |  |  |  | 
13 | COc1ccc(OC)c2c1CC1c3cc(Cc4ccc(S(C)(=O)=O)cc4)sc3CCN1C2 (stereo not given) | 97.9% | 102% | 101% | 128% | 101% | 106% | 1.1 |  |  |  |  |  |  |  |  |  | 
14 | COc1ccc(OC)c2c1CC1c3cc(Cc4cccc(C)c4)sc3CCN1C2 (stereo not given) | 251% | 99% | 99.6% | 237% | 101% | 266% |  |  | 82.7% | 77.8% | 67.6% | 65.6% | Active | 47.5% | Active | 84.5% | Dose-dependent effect
15 | COc1ccc(OC)c2c1CC1c3cc(Cc4ccc(Br)cc4)sc3CCN1C2 (stereo not given) | 242% | 105% | 101% | 169% | 101% | 187% | 1.9 |  |  |  |  |  |  |  |  |  | 
16 | COc1ccc(OC)c2c1CC1c3cc(Cc4ccncc4)sc3CCN1C2 (stereo not given) | 153% | 110% | 105% | 111% | 104% | 130% | 1.3 to 1.5 |  |  |  |  |  |  |  |  |  | 
17 | COc1ccc(OC)c2c1CC1c3cc(Cc4nccs4)sc3CCN1C2 (stereo not given) | 167% | 103% | 104% | 134% | 103% | 152% | 1.3 to 1.5 |  |  |  |  |  |  |  |  |  | 
